From patent publication US12428412B2 (DANA-FARBER CANCER INSTITUTE, INC., priority 2018, dated 2025)
“Also recorded” adds a separate entry of the source.

Key:
[1] = molecular target: T1, CBP (Homo sapiens, UniProt Q92793); test: Cellular degradation assay (immunoblot) in Kelly NB cells, CBP; type: cell-based
T1 construct: endogenous in cells; host or cells: Kelly neuroblastoma cells (incl. Ch2.2, LACZ and CRBN knockout lines)
Procedure: (§1) Kelly Neuroblastoma cells were seeded at 1,000,000 cells per well in 6 well plates and were treated in a dose-dependent manner for 24 to 72 hours. Whole cell lysates were collected using ice cold lysis buffer [300 mM NaCl, 50 mM Tris-HCl, pH 7.5, 0.5% Triton X-100, 1% SDS, 1 mM dithiothreitol (DTT), Roche® protease inhibitor cocktail (1:000), 25 units/mL Benzonase] and blotted at a protein concentration of 20 μg. Histone extraction was performed using the EpiQuik™ Total Histone Extraction Kit (OP-0006-100, Epigentek) and blotted at a protein concentration of 4 μg.
(§2) Whole cell lysates were resolved in NuPAGE® 3-8% Tris-Acetate polyacrylamide gels (EA03785BOX, Invitrogen™) and histone extraction lysates in Bolt 4-12% Bis-Tris polyacrylamide gels (NWO4125BOX, Invitrogen™). Afterwards, gels were transferred to nitrocellulose membranes (LC2001, Invitrogen™). […]
(§3) The experimental protocol is the same as in Example 24. The protein level was determined by immunoblot using EP300 antibody, CBP antibody or H3K27ac antibody. […]

[2] = system: MM.1S cells; test: 4-day growth inhibition assay (ATPlite / cell counting kit), MM.1S cells; type: cell-based; details: 0-10 μM
Procedure: (§4) An aliquot of the ATP standard solution (ATPlite™ 1000 assay kit, PerkinElmer®, USA) was used to prepare a dilution series in water. A series of 100 μL of complete culture medium was pipetted without cells into the wells of the plate. To each well was added 50 μL of the mammalian cell lysis solution, and the plate was shaken for 5 minutes in an orbital shaker at 700 rpm. 10 μL of the ATP dilution series was added to the wells, and the plate was shaken for 5 minutes in an orbital shaker at 700 rpm. 50 μL of the substrate solution was added and the plate was shaken for 5 minutes in an orbital shaker at 700 rpm. The plate dark adapted the plate for 10 minutes prior to measuring the luminescence and then preparing a standard curve.

[3] = molecular target: T2, EP300 (Homo sapiens, UniProt Q09472); test: Cellular degradation assay (immunoblot) in Kelly NB cells, EP300; type: cell-based; details: dose or time dependent
T2 construct: Whole cell lysates were collected using ice cold lysis buffer; endogenous in cells; host or cells: Kelly neuroblastoma cells (incl. Ch2.2, LACZ and CRBN knockout lines)
T2 sequence (Q09472 whole entry): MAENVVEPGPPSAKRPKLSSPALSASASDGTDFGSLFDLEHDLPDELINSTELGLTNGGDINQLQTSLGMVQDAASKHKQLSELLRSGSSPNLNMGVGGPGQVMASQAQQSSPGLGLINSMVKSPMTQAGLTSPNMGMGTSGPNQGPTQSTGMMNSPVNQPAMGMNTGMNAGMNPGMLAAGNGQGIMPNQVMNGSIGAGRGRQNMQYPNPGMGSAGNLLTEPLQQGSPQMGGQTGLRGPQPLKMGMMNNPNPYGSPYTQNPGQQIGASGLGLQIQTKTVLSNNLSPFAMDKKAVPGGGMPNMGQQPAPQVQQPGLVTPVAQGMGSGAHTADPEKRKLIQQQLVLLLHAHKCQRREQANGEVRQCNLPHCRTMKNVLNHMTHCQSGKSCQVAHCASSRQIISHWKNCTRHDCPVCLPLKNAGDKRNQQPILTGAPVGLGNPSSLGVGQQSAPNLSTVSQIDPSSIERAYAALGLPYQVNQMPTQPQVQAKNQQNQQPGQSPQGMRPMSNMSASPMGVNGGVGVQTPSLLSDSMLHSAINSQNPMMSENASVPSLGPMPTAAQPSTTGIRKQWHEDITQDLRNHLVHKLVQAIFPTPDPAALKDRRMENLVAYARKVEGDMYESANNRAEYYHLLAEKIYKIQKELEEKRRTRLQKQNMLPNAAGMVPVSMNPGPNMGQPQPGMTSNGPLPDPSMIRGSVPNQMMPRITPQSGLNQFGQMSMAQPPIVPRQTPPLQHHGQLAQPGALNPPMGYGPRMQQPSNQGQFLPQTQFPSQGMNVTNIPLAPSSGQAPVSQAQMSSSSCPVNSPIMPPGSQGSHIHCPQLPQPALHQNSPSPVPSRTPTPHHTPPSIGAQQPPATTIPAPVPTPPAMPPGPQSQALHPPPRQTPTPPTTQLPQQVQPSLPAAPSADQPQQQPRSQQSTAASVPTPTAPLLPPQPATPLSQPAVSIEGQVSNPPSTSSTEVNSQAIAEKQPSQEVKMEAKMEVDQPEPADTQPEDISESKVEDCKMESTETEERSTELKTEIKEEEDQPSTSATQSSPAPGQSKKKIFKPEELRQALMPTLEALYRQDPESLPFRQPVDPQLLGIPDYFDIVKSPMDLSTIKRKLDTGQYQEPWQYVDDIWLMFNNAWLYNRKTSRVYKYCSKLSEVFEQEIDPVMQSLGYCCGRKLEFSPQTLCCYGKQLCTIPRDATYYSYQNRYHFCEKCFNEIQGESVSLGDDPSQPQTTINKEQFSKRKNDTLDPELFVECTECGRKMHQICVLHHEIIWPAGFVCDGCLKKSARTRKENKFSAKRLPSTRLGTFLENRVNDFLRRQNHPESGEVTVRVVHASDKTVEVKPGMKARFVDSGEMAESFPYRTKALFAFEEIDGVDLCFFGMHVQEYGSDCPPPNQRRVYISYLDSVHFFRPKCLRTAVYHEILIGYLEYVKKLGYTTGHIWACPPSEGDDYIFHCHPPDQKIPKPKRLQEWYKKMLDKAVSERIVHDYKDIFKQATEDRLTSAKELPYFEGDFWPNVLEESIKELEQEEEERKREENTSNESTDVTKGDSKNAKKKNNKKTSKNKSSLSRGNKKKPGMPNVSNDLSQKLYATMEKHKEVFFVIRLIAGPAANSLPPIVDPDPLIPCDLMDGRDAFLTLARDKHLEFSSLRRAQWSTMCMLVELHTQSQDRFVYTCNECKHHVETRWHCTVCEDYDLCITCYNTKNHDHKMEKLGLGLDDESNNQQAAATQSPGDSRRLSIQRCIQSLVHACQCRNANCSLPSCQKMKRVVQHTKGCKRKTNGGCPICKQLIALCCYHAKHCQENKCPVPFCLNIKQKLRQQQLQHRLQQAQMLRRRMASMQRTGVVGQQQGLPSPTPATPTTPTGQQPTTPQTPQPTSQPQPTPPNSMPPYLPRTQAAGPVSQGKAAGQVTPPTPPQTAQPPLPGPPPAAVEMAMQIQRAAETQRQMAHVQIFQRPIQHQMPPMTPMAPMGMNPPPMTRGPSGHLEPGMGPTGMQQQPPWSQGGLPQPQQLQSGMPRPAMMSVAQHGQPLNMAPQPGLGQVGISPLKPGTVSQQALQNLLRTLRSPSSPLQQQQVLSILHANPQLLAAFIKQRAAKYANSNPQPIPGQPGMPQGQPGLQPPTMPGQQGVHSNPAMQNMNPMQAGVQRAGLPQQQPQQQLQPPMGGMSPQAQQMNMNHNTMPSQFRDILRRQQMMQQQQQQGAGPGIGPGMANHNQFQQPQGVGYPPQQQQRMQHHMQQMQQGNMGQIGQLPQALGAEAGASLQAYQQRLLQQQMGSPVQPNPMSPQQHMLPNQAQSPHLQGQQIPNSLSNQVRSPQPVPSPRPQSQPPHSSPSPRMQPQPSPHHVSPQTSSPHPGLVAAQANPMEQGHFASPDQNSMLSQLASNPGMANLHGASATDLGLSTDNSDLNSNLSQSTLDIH
Procedure: as §1, §2, §3

[4] = system: Kelly cells; test: ATPlite cell growth inhibition assay, Kelly cell lines treated 72 hours; type: cell-based
Procedure: Compounds CPD 1 to CPD 22 were tested via ATPlite™ assay (ATPlite™ 1000 assay kit, PerkinElmer®, USA) using standard protocol. […] The signal is normalized to DMSO treated cells.

[5] = molecular target: T2, EP300; test: Proteomics analysis in Kelly NB cells, EP300; type: cell-based; details: 500 nM, 6 hours and 36 hours
Procedure: (§5) FIG. 9C is a plot of the proteomics analysis results after treating Kelly NB cells with CPD 1 (500 nM) at 6 hours and 36 hours.

[6] = system: U266 cells; test: 4-day growth inhibition assay (ATPlite / cell counting kit), U266 cells; type: cell-based; details: 0-10 μM
Procedure: as §4

[7] = molecular target: T2, EP300; test: Immunoblot in CRBN knockout Kelly cell lines, EP300; type: cell-based; details: CRBN-1 and CRBN-3 Kelly lines, 500 nM
Procedure: (§6) CPD 1 was tested in CRBN knockout (k/o) Kelly cell lines. The experimental protocol is the same as in Example 24.

[8] = system: MM.1S cells; test: 6-day MTT assay, MM.1S cells; type: cell-based; details: 0-10 μM
Procedure: (§7) Media from cell cultures was discarded. For adherent cells, the media was carefully aspirated. For suspension cells, the 96 well plate at 1,000×g, 4° C., was spun for 5 minutes in a microplate-compatible centrifuge and the media was carefully aspirated. The volume of existing media has to be the same for each sample. Fifty (50) μL of serum-free media and 50 μL of MTT solution were added into each well. The plate was incubated at 37° C. for 3 hours.
(§8) After incubation, 150 μL of MTT solvent were added into each well. The plate was wrapped in foil and shaken on an orbital shaker for 15 minutes. Absorbance was read at OD=590 nm. Reading was performed within 1 hour.

[9] = molecular target: T1, CBP; test: Proteomics analysis in Kelly NB cells, CBP; type: cell-based; details: 500 nM, 6 hours and 36 hours
Procedure: as §5

[10] = system: U266 cells; test: 6-day MTT assay, U266 cells; type: cell-based; details: 0-10 μM
Procedure: as §7, §8

[11] = molecular target: cereblon (CRBN) (Homo sapiens, UniProt Q96SW2); test: AlphaScreen assay, cereblon (CRBN); type: binding
From the text: An AlphaLISA® assay for EP300 catalytic function (FIG. 3B) and an AlphaScreen™ assay for EP300 bromodomain and cereblon (CRBN) using biotinylated tagged small molecules as a probe for EP300 bromodomain and CRBN, respectively, were developed (FIG. 3C).
AlphaScreen™ assay was used to determine the binding of inventive degrader compound toward both CRBN and HAT domain.

[12] = system: CRBN k/o cell lines; test: Cell viability in CRBN knockout Kelly cell lines; type: cell-based
Procedure: as §6

[13] = In vivo study blood analysis; details: mice, after 14 days
From the text: Blood samples were taken from mice treated daily with 40 mpk intraperitoneal injection (IP) after 14 days.

T1 sequence (Q92793 whole entry): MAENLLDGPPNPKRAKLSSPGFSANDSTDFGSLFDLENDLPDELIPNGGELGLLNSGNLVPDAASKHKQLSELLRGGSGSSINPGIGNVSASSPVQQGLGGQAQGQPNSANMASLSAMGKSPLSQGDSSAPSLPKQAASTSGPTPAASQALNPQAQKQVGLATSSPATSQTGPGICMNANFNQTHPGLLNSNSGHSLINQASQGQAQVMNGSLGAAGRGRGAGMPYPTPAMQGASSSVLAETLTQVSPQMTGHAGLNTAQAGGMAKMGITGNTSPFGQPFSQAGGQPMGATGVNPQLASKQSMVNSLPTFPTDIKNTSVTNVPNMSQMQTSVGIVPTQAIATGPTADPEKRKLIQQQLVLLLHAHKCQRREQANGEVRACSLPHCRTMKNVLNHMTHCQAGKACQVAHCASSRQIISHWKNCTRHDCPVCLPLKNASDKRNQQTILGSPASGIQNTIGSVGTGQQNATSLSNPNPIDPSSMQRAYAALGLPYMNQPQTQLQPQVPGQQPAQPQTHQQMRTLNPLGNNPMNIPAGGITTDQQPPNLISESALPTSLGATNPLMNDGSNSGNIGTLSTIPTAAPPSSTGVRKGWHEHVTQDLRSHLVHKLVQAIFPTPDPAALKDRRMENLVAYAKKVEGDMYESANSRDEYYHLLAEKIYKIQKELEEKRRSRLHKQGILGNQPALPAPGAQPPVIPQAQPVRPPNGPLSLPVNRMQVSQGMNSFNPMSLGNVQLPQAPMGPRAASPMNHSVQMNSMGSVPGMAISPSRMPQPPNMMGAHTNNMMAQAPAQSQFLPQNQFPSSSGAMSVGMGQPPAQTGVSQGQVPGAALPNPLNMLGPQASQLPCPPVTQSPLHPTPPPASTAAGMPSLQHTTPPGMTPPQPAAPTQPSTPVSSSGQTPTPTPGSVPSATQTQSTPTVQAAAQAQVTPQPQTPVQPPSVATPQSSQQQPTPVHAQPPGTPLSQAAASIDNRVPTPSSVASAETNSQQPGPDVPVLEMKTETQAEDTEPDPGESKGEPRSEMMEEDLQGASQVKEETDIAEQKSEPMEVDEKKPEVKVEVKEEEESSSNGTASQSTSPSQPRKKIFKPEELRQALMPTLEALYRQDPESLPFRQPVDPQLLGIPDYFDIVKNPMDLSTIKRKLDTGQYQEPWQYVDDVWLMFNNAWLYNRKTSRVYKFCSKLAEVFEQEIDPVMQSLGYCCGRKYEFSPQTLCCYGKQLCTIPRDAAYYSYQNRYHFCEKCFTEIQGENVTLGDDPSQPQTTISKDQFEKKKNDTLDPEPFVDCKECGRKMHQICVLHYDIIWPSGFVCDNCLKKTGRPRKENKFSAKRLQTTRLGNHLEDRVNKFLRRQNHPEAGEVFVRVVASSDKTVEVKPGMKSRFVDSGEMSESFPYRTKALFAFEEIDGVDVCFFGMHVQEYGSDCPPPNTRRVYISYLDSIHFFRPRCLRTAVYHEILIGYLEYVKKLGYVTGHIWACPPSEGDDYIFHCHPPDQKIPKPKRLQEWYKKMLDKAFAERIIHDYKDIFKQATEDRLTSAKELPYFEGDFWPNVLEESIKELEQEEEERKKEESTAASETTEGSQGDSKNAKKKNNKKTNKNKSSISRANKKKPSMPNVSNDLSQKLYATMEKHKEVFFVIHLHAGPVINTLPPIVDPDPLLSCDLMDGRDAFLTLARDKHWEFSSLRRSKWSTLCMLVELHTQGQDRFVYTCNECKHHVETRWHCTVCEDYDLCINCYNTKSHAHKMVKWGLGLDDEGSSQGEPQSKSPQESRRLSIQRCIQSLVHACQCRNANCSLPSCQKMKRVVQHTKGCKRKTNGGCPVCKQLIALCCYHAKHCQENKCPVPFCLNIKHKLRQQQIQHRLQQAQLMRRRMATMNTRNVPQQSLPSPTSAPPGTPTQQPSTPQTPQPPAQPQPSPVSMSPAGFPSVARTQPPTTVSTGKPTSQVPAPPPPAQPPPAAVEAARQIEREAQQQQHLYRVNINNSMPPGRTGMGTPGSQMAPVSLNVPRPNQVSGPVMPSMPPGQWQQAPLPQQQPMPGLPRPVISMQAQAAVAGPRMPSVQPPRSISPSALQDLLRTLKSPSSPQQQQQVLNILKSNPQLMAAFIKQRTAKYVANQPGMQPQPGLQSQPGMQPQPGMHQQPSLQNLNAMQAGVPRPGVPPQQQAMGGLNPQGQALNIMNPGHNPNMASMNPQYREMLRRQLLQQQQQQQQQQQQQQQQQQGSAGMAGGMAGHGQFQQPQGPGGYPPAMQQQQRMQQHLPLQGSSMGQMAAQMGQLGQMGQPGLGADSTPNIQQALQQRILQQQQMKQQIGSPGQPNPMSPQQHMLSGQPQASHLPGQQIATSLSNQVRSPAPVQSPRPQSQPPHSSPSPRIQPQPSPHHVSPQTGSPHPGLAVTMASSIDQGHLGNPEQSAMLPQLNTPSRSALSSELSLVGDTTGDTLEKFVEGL

C[C@H](N(Cc1ccc(F)cc1)C(=O)CN1C(=O)O[C@@]2(CCc3cc(NC(=O)CCCCCCCCCCCNc4ccc5c(c4)C(=O)N(C4CCC(=O)NC4=O)C5=O)ccc32)C1=O)C(F)(F)F (stereo partly drawn) [CPD 1, 12-((2-(2,6-dioxopiperidin-3-yl)-1,3-dioxoisoindolin-5-yl)amino)-N—((R)-3′-(2-((4-fluorobenzyl)((S)-1,1,1-trifluoropropan-2-yl)amino)-2-oxoethyl)-2′,4′-dioxo-2,3-dihydrospiro[indene-1,5′-oxazolidin]-5-yl)dodecanamide]
CBP degradation ([1]; after 48 hour): degradation of CBP was observed | CBP level ([1]; first 36 hours): without affecting the CBP level | growth inhibition compared with A485 [2]: outperformed inhibitor A485 | EP300 degradation [3]: selective degradation of EP300; also recorded: clear degradation of EP300 | Kelly NB cell growth inhibition ([4]; 72 hours, ATPlite, normalized to DMSO): outperformed positive control A485; also recorded: Cell growth inhibition was observed; also recorded: much higher potency compared to inhibitor alone | IC50 ([4]; ND: not detected): 0.166 µM | EP300 degradation (proteomics) [5]: selectively and significantly degraded | growth inhibition compared with A485 [6]: outperformed inhibitor A485 | EP300 degradation in CRBN k/o lines [7]: did not degrade | growth inhibition compared with A485 [8]: outperformed inhibitor A485 | CBP level (proteomics) [9]: No changes in the CBP level were observed | growth inhibition compared with A485 [10]: outperformed inhibitor A485 | binding to cereblon (CRBN) [11]: bound and bind | cell growth inhibition in CRBN k/o cell lines [12]: did not affect CRBN k/o cell lines | ALP ([13]; 40 mg/kg IP daily): 51 U/L | ALT ([13]; 40 mg/kg IP daily): 54 U/L | AST ([13]; 40 mg/kg IP daily): 37 U/L | Albumin ([13]; 40 mg/kg IP daily): 3.2 g/dL | Basophils ([13]; 40 mg/kg IP daily): 0.02 K/μL | Creatinine ([13]; 40 mg/kg IP daily): 0.17 mg/dL | Eosinophils ([13]; 40 mg/kg IP daily): 0.10 K/μL | GGTP ([13]; 40 mg/kg IP daily): 5 | Hematocrit ([13]; 40 mg/kg IP daily): 41.2% | Hemoglobin ([13]; 40 mg/kg IP daily): 13.35 g/dL | Lymphocytes ([13]; 40 mg/kg IP daily): 1.80 K/μL | Monocytes ([13]; 40 mg/kg IP daily): 0.35 K/μL | Neutrophils ([13]; 40 mg/kg IP daily): 1.2 K/μL | Platelet ([13]; 40 mg/kg IP daily): 528 K/μL | WBC ([13]; 40 mg/kg IP daily): 3.46 K/μL | toxicity by blood sample measurements ([13]; 40 mpk IP daily): not toxic
